Reference: patent US6025385A, “Taxane derivatives and drugs containing the same” (Kabushiki Kaisha Yakult Honsha, priority 1996, dated 2000)
Values after ≈ are worked out from the molar mass of the structure shown. Read-outs that look alike come from different tables or passages of the source.

What was measured:
[1] = Solubility in water (HPLC, shaken 2 hours at room temperature); settings: for Dissolved amount (Y): amount in 5 μl injected, purified water with 0.1 N hydrochloric acid, room temperature, 2 hours; for solubility thermodynamic at 2 h: water with 0.1 n hcl
Method: I) Preparation of calibration curves:
Using 20 μl portions of the standard solutions, tests were conducted by HPLC (operation conditions 1).
[HPLC operation conditions 1]
Column: Inertsil ODS-2 (5-250), 40 deg.
Mobile phase: 0.01 M KH2 PO4 --CH3 CN (5:4).
Detection: Ultraviolet absorption photometer (225 nm), 0.08AUFS.
To the respective suspensions, 0.1 N hydrochloric acid was added in amounts of 35 λl and 30 μl (1.1 eq.). By ultrasonication the resulting mixtures were formed into uniform suspensions, which were then shaken at room temperature for 2 hours. The thus-obtained mixtures were filtered through membrane filters (0.22 pm), and the filtrates were provided as test solutions. Using 5 μl portions of the test solutions, tests were conducted by HPLC (operation conditions 1).
I) Preparation of calibration curve:
By ultra-sonication the suspension was formed into a uniform suspension, which was then shaken at room temperature for 2 hours.
Using 20 At of the standard solution, a test was conducted by HPLC (operation conditions 1).
Operation conditions for the HPLC operation were set as in Test 1.
By ultrasonication the resulting mixture was formed into a uniform suspension, which was then shaken at room temperature for 2 hours. The mixture was filtered through a membrane filter (0.22 pm), and the filtrate was provided as a test solution. Using 5 μl of the test solution, a test was conducted by HPLC (the above operation conditions).

[2] = test system: cell strain KB derived from a human mouth cancer; assay: Growth inhibitory activity against KB cells (XTT assay); format: cell-based; settings: for GI50: Homo sapiens, 72 h, read-out: 50% Growth Inhibitory Concentration (GI50), KB; for Activity ratio: KB GI50 relative to Taxol (Taxol = 1.0)
Method: Growth Inhibitory Activities of Taxane Derivatives (1)
As a cell strain KB derived from a human mouth cancer, one purchased from Dainippon Pharmaceutical Co., Ltd. and stored in a lyophilized form at The Central Research Center, Yakult Honsha Co., Ltd. was used. In Dulbeccols modefied Earglets medium containing 10% fetal bovine serum (product of NISSUI PHARMACEUTICAL CO., LTD.), the KB was maintenance-cultured under the following conditions: 5%, CO2 -air, 37° C.
Each compound was used by dissolving it at a concentration of 10 mg/ml in DMSO.
On Day-1, cells which were in a logarithmic growth phase were inoculated at 2,000 cells/100 μl/well on 96-well microtiter plates (Falcon #3072) by using a phenol-red-free culture medium with 10% fetal bovine serum contained therein (Dulbecco's molefied Eargle's medium (Sigma)), and were cultured overnight. On Day 0, the compounds each of which had been diluted to 0.03 to 10,000 ng/ml with the same culture medium were added in 100 μl aliquots to the individual wells, and the cells were cultured for 3 days. Three wells were used per each drug concentration. Each plate was provided with three blank wells containing only the culture medium and also with eight wells as a drug-untreated control.
Before use, XTT (Sigma) was dissolved at a concentration of 1 mg/me in each culture media which as free of serum. Phenodin methosulfate (Sigma) dissolved at a concentration of 5 mM in PBS was added to the resulting solution at a volume ratio of 1/200. To each well, the solution so prepared was added in an amount of 50 μl per well. Subsequent to culture for 4 hours, OD was measured at 450 nm by ELISA.
Calculation of 50% Growth Inhibitory Concentration (GI50)
GI50 was calculated by interpolation from a concentration-growth inhibition rate (GIR). GIR was determined in accordance with the following formula: [formula] Bibiography Scudiero D A, et al., Cacer Res., 48, 4827-4833, 1988.
1994 Report of The Anticancer Agent Screening Special Committee, "Cancers and Chemotherapy", 21, 1306-1307.

[3] = test system: ovarian cancer and breast cancer; settings: Ann. int. Med. 111, 273, 1989; cited from earlier work
[4] = background statement; cited from earlier work
[5] = purified water with hydrochloric acid

| Structure (SMILES) | Dissolved amount (Y) [1] | solubility at 2 h [1, 5] | solubility thermodynamic at 2 h [1] | GI50 ([2]; KB) | Activity ratio [2] | GI50 ([2]; KB cells, 3 days culture, XTT) | other results |
| --- | --- | --- | --- | --- | --- | --- | --- |
| CC(=O)O[C@@]12CO[C@@H]1C[C@H](O)[C@@]1(C)C(=O)[C@H](OC(=O)N3CCC(N(C)C)CC3)C3=C(C)[C@@H](OC(=O)[C@H](O)[C@@H](NC(=O)OC(C)(C)C)c4ccccc4)C[C@@](O)([C@@H](OC(=O)c4ccccc4)[C@H]21)C3(C)C [Compound 3, 13-O-[3-(tert-Butoxycarbonylamino)-2-hydroxy-3-phenylpropionyl]-10-O-(4-dimethylaminopiperidinocarbonyl)-10-deacetylbaccatin III] | 6.31 μg/5 μl | 1260 µg/mL (≈ 1310 µM) | 1260 µg/mL (≈ 1310 µM) |  |  |  |  |
| CCCN(CCC)C1CCN(C(=O)O[C@H]2C(=O)[C@@]3(C)[C@H]([C@H](OC(=O)c4ccccc4)[C@]4(O)C[C@H](OC(=O)[C@H](O)[C@@H](NC(=O)OC(C)(C)C)c5ccccc5)C(C)=C2C4(C)C)[C@]2(OC(C)=O)CO[C@@H]2C[C@@H]3O)CC1 [Compound 6, 13-O-[3-(tert-Butoxycarbonylamino)-2-hydroxy-3-phenylpropionyl]-10-O-(4-dipropylaminopiperidinocarbonyl)-10-deacetylbaccatin III] |  |  |  | 0.73 ng/mL (≈ 0.000717 µM) | 2.7 |  |  |
| CC(=O)O[C@@]12CO[C@@H]1C[C@H](O)[C@@]1(C)C(=O)[C@H](OC(=O)N3CCC(N4CCCCC4)CC3)C3=C(C)[C@@H](OC(=O)[C@H](O)[C@@H](NC(=O)OC(C)(C)C)c4ccccc4)C[C@@](O)([C@@H](OC(=O)c4ccccc4)[C@H]21)C3(C)C [Compound 9, 13-O-[3-(tert-Butoxycarbonylamino)-2-hydroxy-3-phenylpropionyl]-10-O-(4-piperidinopiperidinocarbonyl)-10-deacetylbaccatin III] |  |  |  |  | 2.6 | 0.78 ng/mL (≈ 0.000778 µM) |  |
| CC(=O)O[C@@]12CO[C@@H]1C[C@H](O)[C@@]1(C)C(=O)[C@H](OC(=O)N3CCN(C)CC3)C3=C(C)[C@@H](OC(=O)[C@H](O)[C@@H](NC(=O)OC(C)(C)C)c4ccccc4)C[C@@](O)([C@@H](OC(=O)c4ccccc4)[C@H]21)C3(C)C [Compound 39, 13-O-[3-(tert-Butoxycarbonylamino)-2-hydroxy-3-phenylpropionyl]-10-O-(4-methylpiperazinocarbonyl)-10-deacetylbaccatin III] |  |  |  |  | 3.4 | 0.59 ng/mL (≈ 0.000632 µM) |  |
| CCN1CCN(C(=O)O[C@H]2C(=O)[C@@]3(C)[C@H]([C@H](OC(=O)c4ccccc4)[C@]4(O)C[C@H](OC(=O)[C@H](O)[C@@H](NC(=O)OC(C)(C)C)c5ccccc5)C(C)=C2C4(C)C)[C@]2(OC(C)=O)CO[C@@H]2C[C@@H]3O)CC1 [Compound 42, 13-O-[3-(tert-Butoxycarbonylamino)-2-hydroxy-3-phenylpropionyl]-10-O-(4-ethylpiperazinocarbonyl)-10-deacetylbaccatin III] | 5.90 μg/5 μl | 1180 µg/mL (≈ 1240 µM) | 1180 µg/mL (≈ 1240 µM) | 0.65 ng/mL (≈ 0.000686 µM) | 3.1 |  |  |
| CC(=O)O[C@@]12CO[C@@H]1C[C@H](O)[C@@]1(C)C(=O)[C@H](OC(=O)N3CCN(CC(=O)NC(C)C)CC3)C3=C(C)[C@@H](OC(=O)[C@H](O)[C@@H](NC(=O)OC(C)(C)C)c4ccccc4)C[C@@](O)([C@@H](OC(=O)c4ccccc4)[C@H]21)C3(C)C [Compound 45, 13-O-[3-(tert-Butoxycarbonylamino)-2-hydroxy-3-phenylpropionyl]-10-O-[4-(isopropylaminocarbonylmethyl)piperazinocarbonyl]-10-deacetylbaccatin III] |  |  |  |  | 2.3 | 0.86 ng/mL (≈ 0.000844 µM) |  |
| CC(=O)O[C@H]1C(=O)[C@@]2(C)[C@H]([C@H](OC(=O)c3ccccc3)[C@]3(O)C[C@H](OC(=O)[C@H](O)[C@@H](NC(=O)N4CCC(N5CCCCC5)CC4)c4ccccc4)C(C)=C1C3(C)C)[C@]1(OC(C)=O)CO[C@@H]1C[C@@H]2O [Compound 58, 13-O-[2-Hydroxy-3-phenyl-3-(4-piperidinopiperidinocarbonylamino)propionyl]baccatin III] | 7.95 μg/5 μl | 1590 µg/mL (≈ 1680 µM) | 1590 µg/mL (≈ 1680 µM) |  |  |  |  |
| CC(=O)O[C@H]1C(=O)[C@@]2(C)[C@H]([C@H](OC(=O)c3ccccc3)[C@]3(O)C[C@H](OC(=O)[C@H](O)[C@@H](NC(=O)c4ccccc4)c4ccccc4)C(C)=C1C3(C)C)[C@]1(OC(C)=O)CO[C@@H]1C[C@@H]2O [Taxol, reference compound] |  |  |  | 2 ng/mL (≈ 0.00234 µM) |  |  | efficacy against ovarian cancer and breast cancer [3]: high efficacy against ovarian cancer and breast cancer; solubility at 2 h ([1]; purified water): 0.4 µg/mL (≈ 0.468 µM); solubility in water (in words) [4]: sparingly soluble in water |
